Experimental data taken from US20030119066A1, “Diagnostic kit for detecting immunogenic response and method of screening” (Novozymes A/S, priority 2001, published 2003).

Assays:
anti-Savinase® antibody = assay: ELISA of antibody binding capacity of immobilized peptides with sera raised against different proteins; set-up: species or system rabbits, rats, and mice; details: biotin-linked peptide on streptavidin plates, sera raised against Alcalase, Subtilisin Novo, Carezyme, Laccase, Natalase, SP722, Lipolase (FIG. 1)
Procedure: The antibody binding capacity of the two linear peptide sequences, RRFANDHTR (light gray bars) and RRFSNATRA (dark gray bars), were tested in an ELISA assay, by measuring optical density, OD. The sequences were tested for binding to antibodies in sera raised against different proteins. The different proteins are marked by capital letters A through H. A=Alcalase®, B=Savinase®, C=Subtilisin Novo®), D=Carezyme®) (cellulase), E=Laccase, F=Natalase® (amylase), G=SP722 (amylase), H=Lipolase® (lipase).
Specific IgG and IgE levels were determined using the ELISA specific for human, mouse or rat IgG or IgE. Differences between data sets were analysed by using appropriate statistical methods. The assays were performed as known to the expert.
The following sequences were synthezised, and immobilized on biotin, through a linker molecule:
The biotin-complex was immobilized in ELISA well plates, pre-coated with streptavidin. If phages were used, these were directly coated into the ELISA plate wells. ELISA was performed as described elsewhere, on sera from rabbits, rats, and mice raised against Alcalase®, Savinase®, and Subtilisin Novo® as well as a number of less relevant proteins.
In FIG. 1 the reactivity of the selected peptides in terms of antibody binding capacity is shown (ELISA assay). […]

specific antibodies = assay: Phage display library screening for clones binding specific antibodies; details: random hexa-, nona- or dodeca peptide phage display library
From the text: In a particular method, the identification of antibody binding sequences may be achieved by screening a display package library, particularly a phage display library. The principle behind phage display is that a heterologous DNA sequence can be inserted in the gene coding for a coat protein of the phage (WO 92/15679). The phage will make and display the hybrid protein on its surface where it can interact with specific target agents. Such target agent may be antigen-specific antibodies. It is therefore possible to select specific phages that display antibody-binding peptide sequences. […] Thus, by screening for antibody binding, one can isolate the peptide sequences that have sufficiently high affinity for the particular antibody used. The peptides of the hybrid proteins of the specific phages which bind protein-specific antibodies characterize epitopes that are recognized by the immune system.
From a phage display library expressing random hexa-, nona- or dodeca peptides as part of their membrane proteins, specific phage clones were isolated capable of binding specific antibodies. […] The amino acid sequence of the corresponding oligopeptide was deduced from the DNA sequence.

Substance	reactivity (antibody binding capacity, optical density, OD) (anti-Savinase® antibody)	antibody binding of phage-displayed peptide (specific antibodies)
R R F A N D H T R (RRFANDHTR)	Reactivity was observed with anti-Savinase® antibody only	
R R F S N A T R A (RRFSNATRA)	Reactivity was observed with anti-Savinase® antibody only	
VQVYGDTSA		specific antibody binding peptide
